Results from US5563155A, “Individual stereosiomers of 7-[3-(aminoalkyl)-1-pyrrolidinyl]-quinolones and naphthyridones as antibacterial agents” (Warner-Lambert Company, priority 1995, dated 1996).
In brackets after ≈: the same amount, converted by molar mass. Where two headings read alike, the source gives them in different places.

Columns and labels:
[1] = system: Pseud. aeruginosa UI-18; assay: in vitro antibacterial activity, microtitration dilution (MIC), Pseud. aeruginosa UI-18; type: cell-based; settings: Pseudomonas aeruginosa, UI18, read-out: minimum inhibiting concentration (MIC)
Outline: (§1)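 In vitro MIC (μg/mL) by microdilution.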

[2] = system: Pseud. aeruginosa UI-18; assay: median protective dose in mice given lethal systemic infections, Pseud. aeruginosa UI-18; type: in vivo; settings: Pseudomonas aeruginosa, single dose at time of challenge, read-out: median protective dose (PD50)
Protocol: (§2) The in vivo activity is obtained when the compounds are tested according to the procedure of Miller, et al (Proc. Soc. Exp. Biol. Med. 57, 261, 1944). The median protective dose (PD50) was determined in mice given lethal systemic infections. Single doses of compound were given at time of challenge.
(§3) By use of the above methods, the following minimum inhibiting concentration values (MICs in μg/mL), PD50 's in mg/kg, no effect phototoxicity dose in mg/kg and the cytotoxicity IC50 in μg/mL were obtained for representative enantiomers of the invention and compounds of the prior art as shown in the table.
(§4) The in vivo data as PD50 s are reported below the line of MICs for the same compound.

[3] = system: Staph. aureus UC-76; assay: in vitro antibacterial activity, microtitration dilution (MIC), Staph. aureus UC-76; type: cell-based; settings: Staphylococcus aureus, UC76, read-out: minimum inhibiting concentration (MIC)
Outline: as §1

[4] = system: Strep. faecalis MGH-2; assay: in vitro antibacterial activity, microtitration dilution (MIC), Strep. faecalis MGH-2; type: cell-based; settings: Enterococcus faecalis, MGH2, read-out: minimum inhibiting concentration (MIC)
Outline: as §1

[5] = system: Prot. rettgeri M 1771; assay: in vitro antibacterial activity, microtitration dilution (MIC), Prot. rettgeri M 1771; type: cell-based; settings: Providencia rettgeri, M1771, read-out: minimum inhibiting concentration (MIC)
Outline: as §1

[6] = cytotoxicity, hamster V-79 cells, colony reduction; type: cell-based; settings: 3 hours treatment, colonies counted after 5 days, read-out: Cytotox (cytotoxicity IC50)
Protocol: The cytotoxicity data is obtained using hamster V-79 cells. The cells were suspended in tissue culture medium and grown overnight. Cells were treated with drug for 3 hours, washed free of drug and then replated, and the colonies counted after 5 days. The concentration of drug that reduced colones by 50% relative to control was recorded.
as §3

[7] = system: Strep. pheumoniae SV-1; assay: in vitro antibacterial activity, microtitration dilution (MIC), Strep. pneumoniae SV-1; type: cell-based; settings: Streptococcus pneumoniae, SV1, read-out: minimum inhibiting concentration (MIC)
Outline: as §1

[8] = system: Klebs. pneumoniae MGH-2; assay: in vitro antibacterial activity, microtitration dilution (MIC), Klebs. pneumoniae MGH-2; type: cell-based; settings: Klebsiella pneumoniae, MGH2, read-out: minimum inhibiting concentration (MIC)
Outline: as §1

[9] = system: Strep. pheumoniae SV-1; assay: median protective dose in mice given lethal systemic infections, Strep. pneumoniae SV-1; type: in vivo; settings: Streptococcus pneumoniae, single dose at time of challenge, read-out: median protective dose (PD50)
Protocol: as §2, §3, §4

[10] = system: Strep. pyogenes C-203; assay: in vitro antibacterial activity, microtitration dilution (MIC), Strep. pyogenes C-203; type: cell-based; settings: Streptococcus pyogenes, C203, read-out: minimum inhibiting concentration (MIC)
Outline: as §1

[11] = system: Esch. coli Vogel; assay: in vitro antibacterial activity, microtitration dilution (MIC), Esch. coli Vogel; type: cell-based; settings: Escherichia coli, read-out: minimum inhibiting concentration (MIC)
Outline: as §1

[12] = system: Staph. aureus H 228; assay: in vitro antibacterial activity, microtitration dilution (MIC), Staph. aureus H 228; type: cell-based; settings: Staphylococcus aureus, H228, read-out: minimum inhibiting concentration (MIC)
Outline: as §1

[13] = system: Ent. cloacae MA2646; assay: in vitro antibacterial activity, microtitration dilution (MIC), Ent. cloacae MA2646; type: cell-based; settings: Enterobacter cloacae, read-out: minimum inhibiting concentration (MIC)
Outline: as §1

[14] = in vivo; design: species or system mice; settings: mouse, po
Protocol: The phototoxicity data is obtained using depilated mice. The compound was administered orally each day for four successive days, followed each day by 3 hours of UVA radiation. The mice were examined for any positive signs (redness, erythema) relative to control animals. The no effect dose and the 50% effect dose were determined. By use of the above methods, the following minimum inhibiting concentration values (MICs in μg/mL), PD50 's in mg/kg, no effect phototoxicity dose in mg/kg and the cytotoxicity IC50 in μg/mL were obtained for representative enantiomers of the invention and compounds of the prior art as shown in the table.

[15] = system: Esch. coli Vogel; assay: median protective dose in mice given lethal systemic infections, Esch. coli Vogel; type: in vivo; settings: Escherichia coli, single dose at time of challenge, read-out: median protective dose (PD50)
Protocol: as §2, §3, §4

[16] = system: Strep. pyogenes C-203; assay: median protective dose in mice given lethal systemic infections, Strep. pyogenes C-203; type: in vivo; settings: Streptococcus pyogenes, single dose at time of challenge, read-out: median protective dose (PD50)
Outline: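 Mice given lethal systemic infections received single compound doses at time of challenge; PD50 (mg/kg) is the median protective dose.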

Row | SMILES | MIC [1] | ED50 ([2]; UI18, PO) | ED50 ([2]; UI18, SC) | MIC [3] | MIC [4] | MIC [5] | CC50 at 3 h [6] | MIC [7] | MIC [8] | ED50 ([9]; SV1, PO) | ED50 ([9]; SV1, SC) | MIC [10] | MIC [11] | MIC [12] | MIC [13] | NOAEL at 96 h [14] | ED50 ([15]; PO) | ED50 ([15]; SC) | ED50 ([16]; C203, PO) | ED50 ([16]; C203, SC)
1 | C[C@@H](N)[C@H]1CCN(c2nc3c(cc2F)c(=O)c(C(=O)O)cn3C2CC2)C1 [Example 5, 3S,1R-1-cyclopropyl-6-fluoro-7-[3-(1-aminoethyl)-1-pyrrolidinyl]-1,4-dihydro-4-oxo-1,8-naphthyridine-3-carboxylic acid] | 0.8 µg/mL (≈ 2.22 µM) | 23 mg/kg | 16 mg/kg | 0.025 µg/mL (≈ 0.0694 µM) | 0.1 µg/mL (≈ 0.277 µM) | 0.2 µg/mL (≈ 0.555 µM) | 84 µg/mL (≈ 233 µM) | 0.05 µg/mL (≈ 0.139 µM) | 0.1 µg/mL (≈ 0.277 µM) | 15 mg/kg | 7 mg/kg | 0.05 µg/mL (≈ 0.139 µM) | 0.05 µg/mL (≈ 0.139 µM) | 0.2 µg/mL (≈ 0.555 µM) | 0.05 µg/mL (≈ 0.139 µM) | > 100 mg/kg | 4 mg/kg | 1 mg/kg |  | 
2 | CCN[C@@H](C)[C@@H]1CCN(c2c(F)cc3c(=O)c(C(=O)O)cn(C4CC4)c3c2OC)C1 [Example 18, 3R,1S-1-cyclopropyl-6-fluoro-7-[3-(1-N-ethylaminoethyl)-1-pyrrolidinyl]-8-methoxy-1,4-dihydro-4-3-quinolinecarboxylic acid] | 3.1 µg/mL (≈ 7.43 µM) |  |  | 0.003 µg/mL (≈ 0.00719 µM) | 0.025 µg/mL (≈ 0.0599 µM) | 0.4 µg/mL (≈ 0.958 µM) | 110 µg/mL (≈ 263 µM) | 0.005 µg/mL (≈ 0.012 µM) | 0.2 µg/mL (≈ 0.479 µM) |  |  | 0.006 µg/mL (≈ 0.0144 µM) | 0.1 µg/mL (≈ 0.24 µM) | 0.013 µg/mL (≈ 0.0311 µM) | 0.1 µg/mL (≈ 0.24 µM) | > 100 mg/kg | 5 mg/kg | 2 mg/kg | 0.5 mg/kg | 0.2 mg/kg
3 | CCN[C@H](C)[C@@H]1CCN(c2c(F)cc3c(=O)c(C(=O)O)cn(C4CC4)c3c2OC)C1 [Example 17] | 3.1 µg/mL (≈ 7.43 µM) |  |  | 0.003 µg/mL (≈ 0.00719 µM) | 0.013 µg/mL (≈ 0.0311 µM) | 0.8 µg/mL (≈ 1.92 µM) | 130 µg/mL (≈ 311 µM) | 0.003 µg/mL (≈ 0.00719 µM) | 0.4 µg/mL (≈ 0.958 µM) |  |  | 0.003 µg/mL (≈ 0.00719 µM) | 0.2 µg/mL (≈ 0.479 µM) | 0.013 µg/mL (≈ 0.0311 µM) | 0.2 µg/mL (≈ 0.479 µM) | > 100 mg/kg | 14 mg/kg | 4 mg/kg | 2 mg/kg | 0.6 mg/kg
4 | C[C@@H](N)[C@@H]1CCN(c2nc3c(cc2F)c(=O)c(C(=O)O)cn3C2CC2)C1 [Example 8] | 0.8 µg/mL (≈ 2.22 µM) | 35 mg/kg | 12 mg/kg | 0.06 µg/mL (≈ 0.166 µM) | 0.05 µg/mL (≈ 0.139 µM) | 0.4 µg/mL (≈ 1.11 µM) | 100 µg/mL (≈ 277 µM) | 0.006 µg/mL (≈ 0.0166 µM) | 0.1 µg/mL (≈ 0.277 µM) | 14 mg/kg | 2 mg/kg | 0.013 µg/mL (≈ 0.0361 µM) | 0.05 µg/mL (≈ 0.139 µM) | 0.05 µg/mL (≈ 0.139 µM) | 0.05 µg/mL (≈ 0.139 µM) | 55 mg/kg | 6 mg/kg | 1 mg/kg |  | 
5 | C[C@H](N)[C@@H]1CCN(c2nc3c(cc2F)c(=O)c(C(=O)O)cn3-c2ccc(F)cc2F)C1 [Example 43, 3R,1S-7-[3(1-aminoethyl)-1-pyrrolidinyl]-1-(2,4-difluorophenyl)-6-fluoro-1,4-dihydro-4-oxo-1,8-naphthyridine-3-carboxylic acid] | 0.8 µg/mL (≈ 1.85 µM) |  |  | 0.006 µg/mL (≈ 0.0139 µM) | 0.025 µg/mL (≈ 0.0578 µM) | 0.4 µg/mL (≈ 0.925 µM) | 280 µg/mL (≈ 648 µM) | 0.006 µg/mL (≈ 0.0139 µM) | 0.2 µg/mL (≈ 0.463 µM) | 3 mg/kg | 3 mg/kg | 0.006 µg/mL (≈ 0.0139 µM) | 0.1 µg/mL (≈ 0.231 µM) | 0.05 µg/mL (≈ 0.116 µM) | 0.2 µg/mL (≈ 0.463 µM) | > 100 mg/kg | 3.5 mg/kg | 1 mg/kg | 1 mg/kg | 1 mg/kg
6 | CN[C@@H](C)[C@@H]1CCN(c2c(F)c(N)c3c(=O)c(C(=O)O)cn(C4CC4)c3c2F)C1 [Example 42, 3R,1S-5-amino-1-cyclopropyl-6,8-difluoro-7-[3-(1-N-methylaminoethyl)-1-pyrrolidinyl]-1,4-dihydro-4-oxo-3-quinoline carboxylic acid] | 0.8 µg/mL (≈ 1.97 µM) |  |  | 0.003 µg/mL (≈ 0.00738 µM) | 0.013 µg/mL (≈ 0.032 µM) | 0.1 µg/mL (≈ 0.246 µM) | 17 µg/mL (≈ 41.8 µM) | 0.006 µg/mL (≈ 0.0148 µM) | 0.05 µg/mL (≈ 0.123 µM) |  |  | 0.006 µg/mL (≈ 0.0148 µM) | 0.025 µg/mL (≈ 0.0615 µM) | 0.006 µg/mL (≈ 0.0148 µM) | 0.025 µg/mL (≈ 0.0615 µM) | < 30 mg/kg | 3 mg/kg | 0.4 mg/kg | 0.55 mg/kg | 0.25 mg/kg
7 | CN[C@H](C)[C@@H]1CCN(c2c(F)c(N)c3c(=O)c(C(=O)O)cn(C4CC4)c3c2F)C1 [Example 41, 3R,1R-5-amino-1-cyclopropyl-6,8-difluoro-7-[3-(1-N-methylaminoethyl)-1-pyrrolidinyl]-1,4-dihydro-4-oxo-3-quinoline carboxylic acid] | 0.8 µg/mL (≈ 1.97 µM) |  |  | 0.003 µg/mL (≈ 0.00738 µM) | 0.013 µg/mL (≈ 0.032 µM) | 0.2 µg/mL (≈ 0.492 µM) | 33 µg/mL (≈ 81.2 µM) | 0.006 µg/mL (≈ 0.0148 µM) | 0.1 µg/mL (≈ 0.246 µM) |  |  | 0.006 µg/mL (≈ 0.0148 µM) | 0.05 µg/mL (≈ 0.123 µM) | 0.006 µg/mL (≈ 0.0148 µM) | 0.05 µg/mL (≈ 0.123 µM) | 30 mg/kg | 3 mg/kg | 2 mg/kg | 2 mg/kg | 0.7 mg/kg
